Data reported in publication PMC12865225 (Clinical and Translational Science, 2026).
Where two headings read alike, the source gives them in different places.

Tests used:
[1] = cited from earlier work; for Total CL: mean value from IV studies
[2] = target: T1, OAT4 (Homo sapiens, UniProt Q9NSA0); experiment: Uptake transport assay in OAT4-expressing HEK293 cells; type: cell-based; settings: for transport by OAT4: 2 and 50 μM, 10 min; for Vmax (pmol/106 cells/min) OAT4: uptake, 2 min
T1 construct: expressed in transfected cells; host or cells: HEK293 (recombinant baculovirus-mediated transduction)
T1 sequence (Q9NSA0 1-550): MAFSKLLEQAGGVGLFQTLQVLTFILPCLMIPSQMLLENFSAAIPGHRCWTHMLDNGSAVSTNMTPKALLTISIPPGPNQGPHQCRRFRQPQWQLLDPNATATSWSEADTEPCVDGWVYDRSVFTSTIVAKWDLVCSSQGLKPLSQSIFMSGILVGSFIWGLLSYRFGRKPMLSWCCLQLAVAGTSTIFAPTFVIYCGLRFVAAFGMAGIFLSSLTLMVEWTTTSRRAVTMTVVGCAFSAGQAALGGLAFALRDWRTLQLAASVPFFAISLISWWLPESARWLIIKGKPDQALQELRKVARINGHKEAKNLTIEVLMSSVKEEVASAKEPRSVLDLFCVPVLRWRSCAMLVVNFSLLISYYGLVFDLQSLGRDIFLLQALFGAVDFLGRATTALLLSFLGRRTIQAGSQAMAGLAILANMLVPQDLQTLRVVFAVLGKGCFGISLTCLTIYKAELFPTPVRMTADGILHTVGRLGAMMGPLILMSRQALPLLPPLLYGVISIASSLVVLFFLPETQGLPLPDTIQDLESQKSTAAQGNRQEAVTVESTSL
Procedure: The human transporters OATP1B1, OATP1B3, OATP2B1, and OAT1‐OAT4 and a negative control protein (enhanced yellow fluorescent protein, eYFP) were transiently expressed in human embryonic kidney 293 (HEK293) cells by recombinant baculovirus‐mediated transduction. Baculoviruses carrying human genes for the transporters were prepared as reported previously. HEK293 cells were cultured in DMEM containing 10% fetal bovine serum at 37°C and 5% CO2 and passaged two to three times per week. For the transport studies, 0.05 × 10^6 cells for 48‐well plates (OATPs) or 0.06 × 10^6 cells for 24‐well plates (OATs) were seeded onto cell‐culture treated well plates coated with poly‐D‐lysine. After 1 day, cells were transduced to produce recombinant proteins by changing media to DMEM containing 30 μL (48‐well plates) or 60 μL (24‐well plates) of recombinant baculovirus and 3 mM (OATs) or 5 mM (OATPs) sodium butyrate in a total media volume of 500 μL. The cells were cultured for a further 2 days before the transport assays.
For the transport studies, media were removed and cells were washed once with warm transport uptake buffer (TP‐buffer—pH 7.4 HBSS with 25 mM HEPES and 4 mM sodium bicarbonate). Each experiment included triplicate (OATP) or duplicate (OAT) samples for every test condition. The uptake was started by removing liquid from wells and applying warm TP‐buffer (200 μL for 24‐well plates or 125 μL for 48‐well plates) containing a test compound to cells. Transport assays were terminated after a pre‐specified incubation time (reported in figure legends) by removing substrate solution and washing cells three times with cold TP‐buffer (300 μL for 48‐well plates and 400 μL for 24‐well plates). For the liquid chromatography mass spectrometry (LC–MS) analysis, compounds were extracted from cells with 125 μL (48‐well plates) or 250 μL (24‐well plates) of an ultrapure‐water solution containing 75% methanol and 0.1% formic acid, shaking at 250 RPM for 30 min. […] Samples were transferred to well plates, centrifuged at 3000 g for 30 min, and transferred to a new well plate for the analysis.
Equation (2) (the Michaelis–Menten equation) was fit to the transport kinetic assay data. […] (2) Uptake=Vmax×S/Km+S

[3] = 125 mg PO, ref Sutherland et al. 1970 10
[4] = 250 mg PO, ref Bodey et al. 1972 20
[5] = 250 mg PO, ref Sutherland et al. 1970 10
[6] = 500 mg IV, ref Landersdorfer et al. 2007 15
[7] = 500 mg IV, ref Landersdorfer et al. 2008 17
[8] = 500 mg PO, ref Bodey et al. 1972 20
[9] = 750 mg PO, ref Røder et al. 1995 14
[10] = 1000 mg IV, ref Adam et al. 1983 18
[11] = 1000 mg IV, ref Landersdorfer et al. 2007 15
[12] = 1000 mg IV, ref Landersdorfer et al. 2008 17
[13] = 1000 mg IV, ref Wise et al. 1980 19
[14] = 1000 mg PO MD (day 9), ref Iversen et al. 2023 22
[15] = 1000 mg PO MD (day 27), ref Iversen et al. 2023 22
[16] = 1000 mg PO SD, ref Iversen et al. 2023 22
[17] = 1000 mg PO, ref Everts et al. 2020 16
[18] = 1000 mg PO, ref Gardiner et al. 2018 21
[19] = 6.25 mg/kg PO, ref Jusko et al. 1975 11
[20] = 250 mg IV, ref DeSante et al. 1980 7
[21] = 500 mg PO, ref Beringer et al. 2008 12
[22] = 500 mg PO, ref Gravenkemper et al. 1965 13
[23] = 500 mg PO, ref Røder et al. 1995 14
[24] = 1000 mg PO, ref Gravenkemper et al. 1965 13
[25] = 1000 mg PO, ref Putnam et al. 2005 9
[26] = 1000 mg PO, ref Røder et al. 1995 14

For `Cc1onc(-c2c(F)cccc2Cl)c1C(=O)N[C@@H]1C(=O)N2[C@@H]1SC(C)(C)[C@@H]2C(=O)O` [Flucloxacillin], the “AUC (mg*h/l) Obs” value [1, 3] is given as 8.28 mg·h/L, the “Cmax (mg/l) Obs” value [1, 3] is given as 5.8 mg/L and the “AUC (mg*h/l) Obs” value [1, 4] is given as 14.6 mg·h/L. For the same molecule, the “Cmax (mg/l) Obs” value [1, 4] was 5.7 mg/L, the “AUC (mg*h/l) Obs” value [1, 5] was 14.4 mg·h/L and the “Cmax (mg/l) Obs” value [1, 5] was 11.0 mg/L. The “AUC (mg*h/l) Obs” value [1, 6] was 60.9 mg·h/L, the “Cmax (mg/l) Obs” value [1, 6] was 86.8 mg/L and the “AUC (mg*h/l) Obs” value [1, 7] was 54.8 mg·h/L. For the same molecule, the “Cmax (mg/l) Obs” value [1, 7] was 87.7 mg/L, the “AUC (mg*h/l) Obs” value [1, 8] was 29.1 mg·h/L and the “Cmax (mg/l) Obs” value [1, 8] was 11.4 mg/L. The “Cmax (mg/l) Obs” value ([1]; 500 mg PO, ref Sutherland et al. 1970 10) was 14.7 mg/L, the “AUC (mg*h/l) Obs” value [1, 9] was 67.8 mg·h/L and the “Cmax (mg/l) Obs” value [1, 9] was 34.5 mg/L. The “AUC (mg*h/l) Obs” value [1, 10] was 141 mg·h/L, the “Cmax (mg/l) Obs” value [1, 10] was 236 mg/L and the “AUC (mg*h/l) Obs” value [1, 11] was 122 mg·h/L. The “Cmax (mg/l) Obs” value [1, 11] was 167 mg/L, the “AUC (mg*h/l) Obs” value [1, 12] was 113 mg·h/L and the “Cmax (mg/l) Obs” value [1, 12] was 173 mg/L. For the same molecule, the “AUC (mg*h/l) Obs” value [1, 13] was 73.6 mg·h/L, the “Cmax (mg/l) Obs” value [1, 13] was 140 mg/L and the “AUC (mg*h/l) Obs” value [1, 14] was 56 mg·h/L. The “Cmax (mg/l) Obs” value [1, 14] was 20 mg/L, the “AUC (mg*h/l) Obs” value [1, 15] was 64 mg·h/L and the “Cmax (mg/l) Obs” value [1, 15] was 24 mg/L. The “AUC (mg*h/l) Obs” value [1, 16] was 51 mg·h/L, the “Cmax (mg/l) Obs” value [1, 16] was 21 mg/L and the “AUC (mg*h/l) Obs” value [1, 17] was 82 mg·h/L. For the same molecule, the “Cmax (mg/l) Obs” value [1, 17] was 31 mg/L, the “AUC (mg*h/l) Obs” value [1, 18] was 71.6 mg·h/L and the “Cmax (mg/l) Obs” value [1, 18] was 27.4 mg/L. For the same molecule, the ka reported range [1] was 0.17 to 18.2 h⁻¹, the “CLR” value ([1]; mean from reported IV studies) was 5.1 L/h and the “Total CL” value [1] was 7.75 L/h. For the same molecule, the “transport by OAT4” value [2] was “transported” and the “Vmax (pmol/106 cells/min) OAT4” value [2] was 245 pmol/106 cells/min.

In the case of `Cc1onc(-c2c(Cl)cccc2Cl)c1C(=O)N[C@@H]1C(=O)N2[C@@H]1SC(C)(C)[C@@H]2C(=O)O` [Dicloxacillin], the “AUC (mg*h/l) Obs” value [1, 19] is given as 33.8 mg·h/L, the “Cmax (mg/l) Obs” value [1, 19] is given as 18.4 mg/L and the “AUC (mg*h/l) Obs” value [1, 20] is given as 23.8 mg·h/L. For the same molecule, the “Cmax (mg/l) Obs” value [1, 20] was 56.5 mg/L, the “AUC (mg*h/l) Obs” value [1, 5] was 19.1 mg·h/L and the “Cmax (mg/l) Obs” value [1, 5] was 11.0 mg/L. For the same molecule, the “AUC (mg*h/l) Obs” value [1, 21] was 36.6 mg·h/L, the “Cmax (mg/l) Obs” value [1, 21] was 11.1 mg/L and the “AUC (mg*h/l) Obs” value [1, 22] was 41.1 mg·h/L. For the same molecule, the “Cmax (mg/l) Obs” value [1, 22] was 17.4 mg/L, the “AUC (mg*h/l) Obs” value [1, 23] was 30.8 mg·h/L and the “Cmax (mg/l) Obs” value [1, 23] was 17.3 mg/L. The “AUC (mg*h/l) Obs” value [1, 9] was 66.8 mg·h/L, the “Cmax (mg/l) Obs” value [1, 9] was 34.4 mg/L and the “AUC (mg*h/l) Obs” value ([1]; 1000 mg IV, ref Nauta and Mattie 1976 8) was 114 mg·h/L. For the same molecule, the “AUC (mg*h/l) Obs” value [1, 24] was 72.4 mg·h/L, the “Cmax (mg/l) Obs” value [1, 24] was 28.9 mg/L and the “AUC (mg*h/l) Obs” value [1, 25] was 78.0 mg·h/L. The “Cmax (mg/l) Obs” value [1, 25] was 31.4 mg/L, the “AUC (mg*h/l) Obs” value [1, 26] was 82.5 mg·h/L and the “Cmax (mg/l) Obs” value [1, 26] was 30.7 mg/L. The “fraction absorbed, range reported” value ([1]; dicloxacillin capsules) was 35 – 76%, the “Total CL” value [1] was 8.885 L/h and the “transport by OAT4” value [2] was “transported”. The “Vmax (pmol/106 cells/min) OAT4” value [2] was 239 pmol/106 cells/min.
